Measurements taken from patent US11339144B2 (Navitor Pharmaceuticals, Inc., priority 2017, dated 2022).

Biological target: HA-GST-Rheb (GTP-γ-S loaded) activating mTORC1 (Homo sapiens (Human), UniProt Q15382)
Experiment: Rheb-dependent in vitro kinase assay (Rheb-IVK; LanthaScreen or Western readout)
Format: biochemical
Conditions: Rheb-dependent in vitro kinase assay; read-out: IVK IC50

HA-GST-Rheb (GTP-γ-S loaded) activating mTORC1, sequence (Q15382 1-181): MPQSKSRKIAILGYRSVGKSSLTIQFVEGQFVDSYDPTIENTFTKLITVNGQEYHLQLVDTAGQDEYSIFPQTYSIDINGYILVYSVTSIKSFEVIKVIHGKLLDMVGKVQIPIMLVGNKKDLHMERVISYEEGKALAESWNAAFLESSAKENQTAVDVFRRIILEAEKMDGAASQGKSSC

| Structure (SMILES) | IC50 [µM] |
| --- | --- |
| Cc1cc(Oc2ccccc2)cc2c1cc(CO)n2C [I-245] | > 100 |
| CCn1c(CO)nc2c(Cl)cc(OCc3ccccc3)cc21 [I-413] | > 100 |
| OCc1nc2c(OC[C@H]3CCCC[C@@H]3O)c(Cl)c(Cl)cc2n1Cc1nn[nH]n1 (racemic) [I-391, (+,−)-trans-2-((1-((2H-tetrazol-5-yl)methyl)-5,6-dichloro-2-(hydroxymethyl)-1H-benzo[d]imidazol-4-yloxy)methyl)cyclohexanol] | 10 to 100 |
| Cn1ccc2c(Oc3cccc(Cl)c3)cccc21 [I-270] | > 100 |
| OCc1cc2c(Oc3cccc(F)c3)cccc2[nH]1 [I-264] | > 100 |
| O=C(c1ccc(Cl)cc1)c1cccc2[nH]ccc12 [I-178] | > 100 |
| CCn1c(CO)nc2cc(OCc3ccccc3)ccc21 [I-416] | > 100 |
| CCn1c(CO)nc2cc(Cl)c(OCc3ccccc3)cc21 [I-488] | > 100 |
| Nc1nonc1-c1nc2cc(Cl)c(Cl)cc2[nH]1 [I-477] | > 100 |
| CCCn1c(CO)nc2cc(Cl)c(OCc3ccccc3)cc21 [I-480] | > 100 |
| OCc1nc2c(OC[C@H]3CCCC[C@@H]3O)c(Cl)c(Cl)cc2[nH]1 (racemic) [I-383, (+,−)-trans-2-((5,6-dichloro-2-(hydroxymethyl)-1H-benzo[d]imidazol-4-yloxy)methyl)cyclohexanol] | 10 to 100 |
| CCCn1c(CO)nc2cc(OCc3ccccc3)c(Cl)cc21 [I-479] | > 100 |
| OCc1cc2c(Br)cc(Oc3ccccc3)cc2n1Cc1nc[nH]n1 [I-225] | > 100 |
| OCc1cc2c(Oc3ccccc3)cccc2[nH]1 [I-287] | > 100 |
| CCn1c(CO)nc2cc(Cl)c(OCCc3ccccc3)cc21 [I-431] | > 100 |
| OCc1nc2c(Oc3ccccc3)cc(Cl)cc2[nH]1 [I-404] | > 100 |
| OCc1cc2ccc(Oc3ccccc3)cc2[nH]1 [I-286, (6-Phenoxy-1H-indol-2-yl)methanol] | 300 to 800 |
| Cn1ccc(-c2cc(Oc3ccccc3)cc3[nH]c(CO)cc23)n1 [I-213] | > 100 |
| CNC(=O)c1ccc(Sc2cccc3[nH]ccc23)cc1 [I-184] | > 100 |
| CCn1c(CO)nc2cc(Oc3ccccc3)c(Cl)cc21 [I-455] | > 100 |
| N#Cc1ccccc1COc1c(Cl)c(Cl)cc2[nH]c(CO)nc12 [I-472] | > 100 |
| OCc1cc2c(C3CCNCC3)cc(Oc3ccccc3)cc2[nH]1 [I-199] | > 100 |
| c1ccc(Sc2cccc3[nH]ccc23)nc1 [I-210] | > 100 |

| Structure (SMILES) | IC50 [µM] |
| --- | --- |
| Clc1ccc(Sc2cccc3c2ccn3Cc2nc[nH]n2)cc1 [I-196, 1-((1H-1,2,4-triazol-3-yl)methyl)-4-(4-chlorophenylthio)-1H-indole] | 10 to 100 |
| NC(=O)Cn1c(CO)nc2cc(Cl)c(OCc3ccccc3)cc21 [I-476] | > 100 |
| OCc1nc2cc(OCc3ccccc3)c(Cl)cc2n1CC(F)(F)F [I-457] | > 100 |
| Nc1nonc1-c1nc2cc(Cl)c(Cl)cc2n1Cc1ccc(-c2nn[nH]n2)cc1 [I-490, 4-(1-(4-(2H-tetrazol-5-yl)benzyl)-5,6-dichloro-1H-benzo[d]imidazol-2-yl)-1,2,5-oxadiazol-3-amine] | 10 to 100 |
| O=C1CCC(COc2c(Cl)c(Cl)cc3[nH]c(CO)nc23)N1 (stereo not shown) [I-419] | > 100 |
| Cn1c(CO)cc2c(Oc3ccc(F)cc3)cccc21 [I-273] | > 100 |
| Cn1ccc2c(Oc3ccc(Cl)cc3)cccc21 [I-268] | > 100 |
| N#Cc1ccc(Cn2c(-c3ncco3)nc3cc(Cl)c(Cl)cc32)cc1 [I-453] | > 100 |
| OCc1nc2cc(OCc3ccc(F)cc3)c(Cl)cc2[nH]1 [I-482, (6-chloro-5-(4-fluorobenzyloxy)-1H-benzo[d]imidazol-2-yl)methanol] | 100 to 300 |
| CCn1c(CO)nc2cc(Cl)c(Oc3ccccc3)cc21 [I-456] | > 100 |
| OCc1nc2cc(Cl)c(OCc3ccccc3)cc2n1Cc1ccccc1 [I-467] | > 100 |
| OCc1nc2cc(OCc3ccccc3Cl)c(Cl)cc2[nH]1 [I-485, (5-chloro-6-(2-chlorobenzyloxy)-1H-benzo[d]imidazol-2-yl)methanol] | 300 to 800 |
| Clc1ccc(Sc2cc(Cl)c3cc[nH]c3c2)cc1 [I-201, 4-chloro-6-(4-chlorophenylthio)-1H-indole] | 10 to 100 |
| Cn1ccc2c(Oc3ccc(F)cc3)cccc21 [I-265] | > 100 |
| OCc1cc2cc(Sc3ccccc3)ccc2n1Cc1nc[nH]n1 [I-181] | > 100 |
| Clc1ccccc1Oc1cccc2[nH]ccc12 [I-285] | > 100 |
| Cn1c(CO)cc2c(Oc3cccc(F)c3)cccc21 [I-262] | > 100 |
| CCn1c(CO)nc2cc(OCCc3ccccc3)c(Cl)cc21 [I-430] | > 100 |
| Cn1ccc2c(Oc3ccccc3Cl)cccc21 [I-269] | > 100 |
| OCc1nc2c(OCC3CCCO3)c(Cl)c(Cl)cc2[nH]1 (stereo not shown) [I-400, (5,6-dichloro-4-((tetrahydrofuran-2-yl)methoxy)-1H-benzo[d]imidazol-2-yl) methanol bis (2,2,2-trifluoroacetate)] | 100 to 300 |
| Cc1cc2c(Sc3ccc(Cl)cc3)cccc2[nH]1 [I-203] | > 100 |
| O=C(O)c1ccc(Sc2cccc3[nH]ccc23)cc1 [I-192] | > 100 |
| Cn1c(CO)cc2c(Oc3ccc(Cl)cc3)cccc21 [I-259] | > 100 |

| Structure (SMILES) | IC50 [µM] |
| --- | --- |
| CCn1c(CO)nc2cc(OCc3ccc(Cl)cc3)c(Cl)cc21 [I-449] | > 100 |
| CCOCc1nc2cc(OCc3ccccc3)cc(Cl)c2n1CC [I-414] | > 100 |
| Clc1ccc2[nH]c(-c3ncco3)nc2c1Oc1ccccc1 [I-427, 2-(5-chloro-4-phenoxy-1H-benzo[d]imidazol-2-yl)oxazole] | 100 to 300 |
| OCc1cc2c(Br)cc(Oc3ccccc3)cc2n1Cc1ccc(-c2nn[nH]n2)cc1 [I-221] | > 100 |
| OCc1nc2c(OC[C@H]3CCCC[C@@H]3O)c(Cl)c(Cl)cc2n1Cc1cc(Cl)ccc1Cl [I-393] | > 100 |
| OCc1nc2c(Oc3ccccc3)cccc2[nH]1 [I-470] | > 100 |
| Cn1ccc2c(NC3CCCNC3)cccc21 (stereo not shown) [I-298] | > 100 |
| Clc1ccc(Sc2cccc3[nH]ccc23)cc1Cl [I-211] | > 100 |
| CCn1c(CO)nc2ccc(OCc3ccccc3)cc21 [I-417] | > 100 |
| OCc1cc2c(Oc3ccc(F)cc3)cccc2[nH]1 [I-278, (4-(4-fluorophenoxy)-1H-indol-2-yl)methanol] | 300 to 800 |
| CCn1c(CO)nc2cc(Cl)c(OCc3ccc(F)cc3)cc21 [I-445] | > 100 |
| OCc1nc2c(OCCc3c[nH]cn3)c(Cl)c(Cl)cc2[nH]1 [I-384] | > 100 |
| N#Cc1cccc(COc2c(Cl)c(Cl)cc3[nH]c(CO)nc23)c1 [I-459] | > 100 |
| Clc1cccc(Cl)c1Oc1cccc2[nH]ccc12 [I-228] | > 100 |
| NC(=O)c1ccc(Cn2c(-c3ncco3)nc3cc(Cl)c(Cl)cc32)cc1 [I-451] | > 100 |
| OCc1nc2cc(OCCc3ccccc3)c(Cl)cc2[nH]1 [I-483, (6-chloro-5-phenethoxy-1H-benzo[d]imidazol-2-yl)methanol] | 300 to 800 |
| OCc1nc2cc(Cl)c(Cl)c(OCC3CCNC3)c2[nH]1 (stereo not shown) [I-460] | > 100 |
| CCn1c(CO)nc2cc(Cl)c(OCc3ccccc3F)cc21 [I-454] | > 100 |
| CCn1c(CO)nc2cc(OCc3ccccc3)cc(Cl)c21 [I-412] | > 100 |
| OCc1nc2c(OCc3ccnc(Cl)n3)c(Cl)c(Cl)cc2[nH]1 [I-424] | > 100 |
| O=S(=O)(c1ccccc1Cl)c1cccc2[nH]ccc12 [I-232] | > 100 |
| COC(=O)c1cc2c(Sc3ccc(Cl)cc3Cl)cc(Cl)cc2n1Cc1ccc(Br)cc1 [I-104] | > 100 |
| NC(=O)Cn1c(CO)nc2cc(OCc3ccccc3)c(Cl)cc21 [I-475, 2-(5-(benzyloxy)-6-chloro-2-(hydroxymethyl)-1H-benzo[d]imidazol-1-yl)acetamide] | 100 to 300 |

| Structure (SMILES) | IC50 [µM] |
| --- | --- |
| CCn1c(CO)nc2cc(OCc3ccccc3Cl)c(Cl)cc21 [I-432] | > 100 |
| CCn1c(CO)nc2cc(OCc3ccccc3F)c(Cl)cc21 [I-461] | > 100 |
| OCc1cc2c(OCc3ccccc3)cc(Cl)cc2[nH]1 [I-294] | > 100 |
| OCc1nc2c(OC[C@H]3CCCC[C@@H]3O)c(Cl)c(Cl)cc2n1Cc1nc[nH]n1 [I-392] | > 100 |
| CCn1c(CO)nc2cc(OCc3ccc(F)cc3)c(Cl)cc21 [I-444] | > 100 |
| COC(=O)c1ccc(Sc2cccc3[nH]ccc23)cc1 [I-188] | > 100 |
| OCc1nc2c(Oc3ccc(Cl)cc3)cccc2n1Cc1nc[nH]n1 [I-408] | > 100 |
| Clc1cc2cc[nH]c2cc1Oc1ccccc1 [I-258] | > 100 |
| Nc1nccc(COc2c(Cl)c(Cl)cc3[nH]c(CO)nc23)n1 [I-423] | > 100 |
| O=S(=O)(c1cccc(Cl)c1)c1cccc2[nH]ccc12 [I-240] | > 100 |
| N#CCc1nc2c(OCc3ccccc3)c(Cl)ccc2[nH]1 [I-469] | > 100 |
| N#CCc1nc2c(Oc3ccccc3)c(Cl)ccc2[nH]1 [I-441] | > 100 |
| CCn1c(CO)nc2cc(OCc3cccc(F)c3)c(Cl)cc21 [I-442] | > 100 |
| Clc1cc2nc(-c3cnon3)n(Cc3ccc(-c4nn[nH]n4)cc3)c2cc1Cl [I-474, 3-(1-(4-(2H-tetrazol-5-yl)benzyl)-5,6-dichloro-1H-benzo[d]imidazol-2-yl)-1,2,5-oxadiazole] | 300 to 800 |
| Nc1ncncc1COc1c(Cl)c(Cl)cc2[nH]c(CO)nc12 [I-409] | > 100 |
| COC(=O)c1cc(Sc2ccc(Cl)cc2)c2cc[nH]c2c1 [I-197] | > 100 |
| CCn1cnc2cc(Cl)c(OCc3ccccc3)cc21 [I-435] | > 100 |
| OCc1nc2c(OCC3CCCCO3)c(Cl)c(Cl)cc2[nH]1 (stereo not shown) [I-398] | > 100 |
| COc1ccc(Sc2cc(Cl)cc3[nH]c(C(=O)O)cc23)cc1OC [I-138, 6-chloro-4-(3,4-dimethoxyphenylthio)-1H-indole-2-carboxylic acid] | 100 to 300 |
| OCc1nc2cc(OCc3ccccc3)c(Cl)cc2n1Cc1ccccc1 [I-466] | > 100 |
| OCc1cc2c(Br)cc(OCc3ccccc3)cc2n1Cc1ccccc1 [I-224] | > 100 |
| NC(=O)c1cccc(Cn2c(-c3ncco3)nc3cc(Cl)c(Cl)cc32)c1 [I-447] | > 100 |
